The source of these data is patent US7348427B2, “Antipathogenic benzamide compounds” (Genesoft Pharmaceuticals, Inc., priority 2001, dated 2008).

Assay [1] relates to Candida albicans (ATCC 38247). Nature of the assay: Antifungal MIC assay. It is filed as cell-based. The settings on record: B = C. albicans ATCC 38247. The method, boiled down:
(§1)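 Broth microdilution, NCCLS M7-A4/M11-A4/M27-T guidelines; readout = minimal inhibitory concentration. Candida: Manual of Clinical Microbiology method.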

Assay [2] deals with Bacillus cereus (ATCC 11778). Nature of the assay: MIC, NCCLS broth microdilution assay. The class given is cell-based. The settings on record: A = B. cereus ATCC 11778. In short, it runs like this: as §1
Assay [3] concerns Staphylococcus aureus (ATCC 27660, a methicillin resistant strain (MRSA)). Nature of the assay: MIC, NCCLS broth microdilution assay. It is filed as cell-based. The settings on record: F = S. aureus ATCC 27660. In short, it runs like this:
as §1

Assay [4] deals with Staphylococcus aureus (ATCC 13709, a methicillin sensitive strain (MSSA)). As to the kind of experiment: MIC, NCCLS broth microdilution assay. The class given is cell-based. The settings on record: E = S. aureus ATCC 13709. The method, boiled down:
as §1
On the technique in general: Broth dilution looks for growth in wells or tubes with falling amounts of substance.

The next assay relates to S. pneumoniae ATCC 49619. As to the kind of experiment: MIC, NCCLS broth microdilution assay. It is filed as cell-based, Streptococcus pneumoniae. The settings on record: H = S. pneumoniae ATCC 49619. In short, it runs like this: (§2)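 MICs were determined by NCCLS broth microdilution following documents M7-A4 and M11-A4 (1997).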
A further assay deals with E. faecalis ATCC 29212. Nature of the assay: MIC, NCCLS broth microdilution assay. It is filed as cell-based, Enterococcus faecalis. The settings on record: C = E. faecalis ATCC 29212. In short, it runs like this:
as §2

For the compound `Cn1cc(NC(=O)c2cc(NC(=O)c3cc(NC(=O)c4ccc(F)cc4F)cn3CCCO)cn2C)cc1C(=O)NCCN1CCOCC1` [Compound C-6], the “Minimum Inhibitory Concentration (MIC)” value is more than 32 µg/mL in assay [1]; “+ (+ = 12 ≦ MIC ≦ 32)” in assay [2]; “+ (+ = 12 ≦ MIC ≦ 32)” in assay [3]; “+ (+ = 12 ≦ MIC ≦ 32)” in assay [4]; “+++ (+++ = MIC ≦ 4)” in the assay on S. pneumoniae ATCC 49619; “+ (+ = 12 ≦ MIC ≦ 32)” with E. faecalis ATCC 29212.
Regarding `COCn1cc(NC(=O)c2ccc(F)cc2F)cc1C(=O)Nc1cc(C(=O)Nc2cc(C(=O)NCCN3CCOCC3)n(C)c2)n(C)c1` [Compound C-7], the “Minimum Inhibitory Concentration (MIC)” value is more than 32 µg/mL in assay [1]; “+ (+ = 12 ≦ MIC ≦ 32)” in assay [2]; “+ (+ = 12 ≦ MIC ≦ 32)” in assay [3]; “++ (++ = 4 < MIC < 12)” in assay [4]; “+++ (+++ = MIC ≦ 4)” in the assay with S. pneumoniae ATCC 49619; “+ (+ = 12 ≦ MIC ≦ 32)” in the assay with E. faecalis ATCC 29212.
Take `Cn1cc(NC(=O)c2cc(NC(=O)c3ccc(Cl)cc3F)c[nH]2)cc1C(=O)Nc1c[nH]c(C(=O)NCCN2CCOCC2)c1` [Compound C-8]: the “Minimum Inhibitory Concentration (MIC)” value (in assay [1]; in assay [2]; in assay [3]; in assay [4]; in the assay with S. pneumoniae ATCC 49619; with E. faecalis ATCC 29212) was “+++ (+++ = MIC ≦ 4)” in each case.
As to `Cn1cc(NC(=O)c2cc(NC(=O)c3cc(NC(=O)c4ccc(Cl)cc4F)cn3C)c[nH]2)cc1C(=O)NCCN1CCOCC1` [Compound C-10], the “Minimum Inhibitory Concentration (MIC)” value is recorded as “+ (+ = 12 ≦ MIC ≦ 32)” in assay [1]; “+++ (+++ = MIC ≦ 4)” in assay [2]; “+++ (+++ = MIC ≦ 4)” in assay [3]; “+++ (+++ = MIC ≦ 4)” in assay [4]; “+++ (+++ = MIC ≦ 4)” with S. pneumoniae ATCC 49619; “+++ (+++ = MIC ≦ 4)” in the assay with E. faecalis ATCC 29212.
Consider `Cn1cc(NC(=O)c2cc(NC(=O)c3cc(NC(=O)c4ccc(Cl)cc4F)c[nH]3)cn2CCCO)cc1C(=O)NCCN1CCOCC1` [Compound C-14], for which the “Minimum Inhibitory Concentration (MIC)” value is more than 32 µg/mL in assay [1]; “+++ (+++ = MIC ≦ 4)” in assay [2]; “+++ (+++ = MIC ≦ 4)” in assay [3]; “+++ (+++ = MIC ≦ 4)” in assay [4]; “+++ (+++ = MIC ≦ 4)” in the assay with S. pneumoniae ATCC 49619; “++ (++ = 4 < MIC < 12)” in the assay on E. faecalis ATCC 29212.
In the case of `Cn1cc(NC(=O)c2cc(NC(=O)c3cc(NC(=O)c4ccc(Cl)cc4F)c[nH]3)cn2CCCO)cc1C(=O)NCCN1CCOCC1` [Compound C-15], the “Minimum Inhibitory Concentration (MIC)” value in assay [1] was more than 32 µg/mL; in assay [2], “++ (++ = 4 < MIC < 12)”; in assay [3], “+++ (+++ = MIC ≦ 4)”; in assay [4], “++ (++ = 4 < MIC < 12)”; in the assay with S. pneumoniae ATCC 49619, “+++ (+++ = MIC ≦ 4)”; in the assay on E. faecalis ATCC 29212, “+ (+ = 12 ≦ MIC ≦ 32)”.
On to `Cn1cc(NC(=O)c2cc(NC(=O)c3cc(NC(=O)c4ccc(Cl)cc4F)cn3CCCO)cn2C)cc1C(=O)NCCN1CCOCC1` [Compound C-16], for which the “Minimum Inhibitory Concentration (MIC)” value in assay [1] is more than 32 µg/mL; in assay [2], “+++ (+++ = MIC ≦ 4)”; in assay [3], “+++ (+++ = MIC ≦ 4)”; in assay [4] it was “+++ (+++ = MIC ≦ 4)”; in the assay on S. pneumoniae ATCC 49619 it was “+++ (+++ = MIC ≦ 4)”; in the assay with E. faecalis ATCC 29212, “+++ (+++ = MIC ≦ 4)”.
As to `COCn1cc(NC(=O)c2ccc(Cl)cc2F)cc1C(=O)Nc1cc(C(=O)Nc2cc(C(=O)NCCN3CCOCC3)n(C)c2)n(C)c1` [Compound C-17], the “Minimum Inhibitory Concentration (MIC)” value in assay [1] was more than 32 µg/mL; in assay [2], “+++ (+++ = MIC ≦ 4)”; in assay [3], “+++ (+++ = MIC ≦ 4)”; in assay [4], “+++ (+++ = MIC ≦ 4)”; in the assay with S. pneumoniae ATCC 49619 it was “+++ (+++ = MIC ≦ 4)”; with E. faecalis ATCC 29212, “+++ (+++ = MIC ≦ 4)”.
With `Cn1cc(NC(=O)c2cc(NC(=O)c3cc(NC(=O)c4ccc(Cl)cc4F)cn3C)cn2CCCCl)cc1C(=O)NCCN1CCOCC1` [Compound C-18], the “Minimum Inhibitory Concentration (MIC)” value in assay [1] was more than 32 µg/mL; in assay [2] it was “+++ (+++ = MIC ≦ 4)”; in assay [3], “+++ (+++ = MIC ≦ 4)”; in assay [4] it was “+++ (+++ = MIC ≦ 4)”; in the assay with S. pneumoniae ATCC 49619 it was “+++ (+++ = MIC ≦ 4)”; in the assay with E. faecalis ATCC 29212 it was “+++ (+++ = MIC ≦ 4)”.
`Cn1cc(NC(=O)c2cc(NC(=O)c3cc(NC(=O)c4ccc(Cl)cc4F)c[nH]3)cn2CCCCl)cc1C(=O)NCCN1CCOCC1` [Compound C-19]: the “Minimum Inhibitory Concentration (MIC)” value in assay [1] was more than 32 µg/mL; in assay [2], “+++ (+++ = MIC ≦ 4)”; in assay [3], “+++ (+++ = MIC ≦ 4)”; in assay [4], “+++ (+++ = MIC ≦ 4)”; in the assay with S. pneumoniae ATCC 49619, “+++ (+++ = MIC ≦ 4)”; in the assay with E. faecalis ATCC 29212, “+++ (+++ = MIC ≦ 4)”.
`CCSCCCn1cc(NC(=O)c2cc(NC(=O)c3ccc(Cl)cc3SCC)cn2C)cc1C(=O)Nc1cc(C(=O)Nc2cc(C(=O)NCCN3CCOCC3)n(C)c2)n(C)c1` [Compound C-20]: the “Minimum Inhibitory Concentration (MIC)” value in assay [1] is more than 32 µg/mL; in assay [2], more than 32 µg/mL; in assay [3], more than 32 µg/mL; in assay [4], more than 32 µg/mL; in the assay with S. pneumoniae ATCC 49619 it was “+++ (+++ = MIC ≦ 4)”; in the assay on E. faecalis ATCC 29212, more than 32 µg/mL.
With `Cc1cc(NC(=O)c2cc(NC(=O)c3cc(NC(=O)c4ccc(Cl)cc4NCCN4CCOCC4)cn3C)c[nH]2)sn1` [Compound C-21], the “Minimum Inhibitory Concentration (MIC)” value in assay [1] was more than 32 µg/mL; in assay [2] it was “++ (++ = 4 < MIC < 12)”; in assay [3], “+++ (+++ = MIC ≦ 4)”; in assay [4] it was “++ (++ = 4 < MIC < 12)”; in the assay with S. pneumoniae ATCC 49619 it was “+++ (+++ = MIC ≦ 4)”; in the assay with E. faecalis ATCC 29212 it was “++ (++ = 4 < MIC < 12)”.
Consider `Cc1cc(NC(=O)c2cc(NC(=O)c3cc(NC(=O)c4ccc(Cl)cc4NCCN4CCCCC4)cn3C)c[nH]2)sn1` [Compound C-22], for which the “Minimum Inhibitory Concentration (MIC)” value in assay [1] is given as “+ (+ = 12 ≦ MIC ≦ 32)”; in assay [2], “+++ (+++ = MIC ≦ 4)”; in assay [3], “+++ (+++ = MIC ≦ 4)”; in assay [4], “+++ (+++ = MIC ≦ 4)”; in the assay with S. pneumoniae ATCC 49619 it was “+++ (+++ = MIC ≦ 4)”; in the assay on E. faecalis ATCC 29212, “+++ (+++ = MIC ≦ 4)”.
Consider `Cc1cc(NC(=O)c2cc(NC(=O)c3cc(NC(=O)c4ccc(Cl)cc4NCCN4CCCC4)cn3C)c[nH]2)sn1` [Compound C-23], for which the “Minimum Inhibitory Concentration (MIC)” value in assay [1] is more than 32 µg/mL; in assay [2] it was “+++ (+++ = MIC ≦ 4)”; in assay [3] it was “+++ (+++ = MIC ≦ 4)”; in assay [4], “+++ (+++ = MIC ≦ 4)”; in the assay on S. pneumoniae ATCC 49619 it was “+++ (+++ = MIC ≦ 4)”; in the assay with E. faecalis ATCC 29212 it was “++ (++ = 4 < MIC < 12)”.
In the case of `Cc1cc(NC(=O)c2cc(NC(=O)c3cc(NC(=O)c4ccc(Cl)cc4NCCN4CCSCC4)cn3C)c[nH]2)sn1` [Compound C-24], the “Minimum Inhibitory Concentration (MIC)” value in assay [1] was more than 32 µg/mL; in assay [2] it was “++ (++ = 4 < MIC < 12)”; in assay [3], “+++ (+++ = MIC ≦ 4)”; in assay [4] it was “++ (++ = 4 < MIC < 12)”; in the assay on S. pneumoniae ATCC 49619 it was “+++ (+++ = MIC ≦ 4)”; with E. faecalis ATCC 29212, “++ (++ = 4 < MIC < 12)”.
Turning to `Cc1cc(NC(=O)c2cc(NC(=O)c3cc(NC(=O)c4ccc(Cl)cc4NCCCN4CCOCC4)cn3C)c[nH]2)sn1` [Compound C-25], the “Minimum Inhibitory Concentration (MIC)” value in assay [1] is more than 32 µg/mL; in assay [2], more than 32 µg/mL; in assay [3], more than 32 µg/mL; in assay [4], more than 32 µg/mL; with S. pneumoniae ATCC 49619 it was “+++ (+++ = MIC ≦ 4)”; in the assay with E. faecalis ATCC 29212, more than 32 µg/mL.
Take `Cc1cc(NC(=O)c2cc(NC(=O)c3cc(NC(=O)c4ccc(F)cc4F)cn3C)cn2CCN2CCOCC2)sn1` [Compound D-1]: the “Minimum Inhibitory Concentration (MIC)” value in assay [1] is more than 32 µg/mL; in assay [2], “+++ (+++ = MIC ≦ 4)”; in assay [3], “+++ (+++ = MIC ≦ 4)”; in assay [4], “+++ (+++ = MIC ≦ 4)”; in the assay on S. pneumoniae ATCC 49619, “+++ (+++ = MIC ≦ 4)”; in the assay with E. faecalis ATCC 29212, “+++ (+++ = MIC ≦ 4)”.
